Results published in US20180244611A1, “Modulators of the Cystic Fibrosis Transmembrane Conductance Regulator Protein and Methods of Use” (AbbVie S.à.r.l., priority 2017, published 2018).

Columns and labels:
F508delCFTR [1] = target: T1, F508delCFTR (Homo sapiens, UniProt P13569, DEL508-508); assay: Cell Surface Expression-Horse Radish Peroxidase (CSE-HRP) assay, test compound with co-corrector; type: cell-based; details: for EC50: CSE-HRP assay, test compound with 2 μM co-corrector; for Maximum % activity (with co-corrector): maximum at any tested concentration, normalized to on-plate positive control, with 2 μM co-corrector;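 for Maximum % activity (with co-corrector): percent of 2 µM positive control corrector over DMSO; co-corrector is that same compound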
T1 construct: expressed in transfected cells; host or cells: CFBE41o- human lung-derived epithelial cells (CFBE41o-F508delCFTR-HRP), doxycycline-inducible
Procedure, shortened: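 CFBE41o- cells expressing F508delCFTR with HRP in the fourth exofacial loop, induced with 0.5 μg/mL doxycycline for 72 h, then treated 18-24 h at 33° C. with compound (8 points, top 20 μM, 3-fold) plus 2 μM co-corrector. Surface HRP read by luminol luminescence; activity normalised to positive control, EC50 from variable-slope sigmoidal fit.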

F508delCFTR [2] = target: T1, F508delCFTR; assay: Cell Surface Expression-Horse Radish Peroxidase (CSE-HRP) assay, test compound without co-corrector; type: cell-based; details: for EC50: CSE-HRP assay, test compound without co-corrector; for Emax: maximum at any tested concentration, normalized to on-plate positive control, without co-corrector;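 for Emax: percent of on-plate 2 µM positive control corrector response over DMSO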
Procedure, shortened: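 CFBE41o- cells expressing F508delCFTR with HRP in the fourth exofacial loop, induced with 0.5 μg/mL doxycycline for 72 h at 37° C, then exposed to compound alone for 18-24 h at 33° C, 8-point 3-fold series from 20 μM. Surface HRP read by luminol luminescence, normalized to positive corrector control versus DMSO; EC50 from variable-slope sigmoidal fit of three replicate plates.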

T1 sequence (P13569 with tags, fused parts or gaps DEL508-508): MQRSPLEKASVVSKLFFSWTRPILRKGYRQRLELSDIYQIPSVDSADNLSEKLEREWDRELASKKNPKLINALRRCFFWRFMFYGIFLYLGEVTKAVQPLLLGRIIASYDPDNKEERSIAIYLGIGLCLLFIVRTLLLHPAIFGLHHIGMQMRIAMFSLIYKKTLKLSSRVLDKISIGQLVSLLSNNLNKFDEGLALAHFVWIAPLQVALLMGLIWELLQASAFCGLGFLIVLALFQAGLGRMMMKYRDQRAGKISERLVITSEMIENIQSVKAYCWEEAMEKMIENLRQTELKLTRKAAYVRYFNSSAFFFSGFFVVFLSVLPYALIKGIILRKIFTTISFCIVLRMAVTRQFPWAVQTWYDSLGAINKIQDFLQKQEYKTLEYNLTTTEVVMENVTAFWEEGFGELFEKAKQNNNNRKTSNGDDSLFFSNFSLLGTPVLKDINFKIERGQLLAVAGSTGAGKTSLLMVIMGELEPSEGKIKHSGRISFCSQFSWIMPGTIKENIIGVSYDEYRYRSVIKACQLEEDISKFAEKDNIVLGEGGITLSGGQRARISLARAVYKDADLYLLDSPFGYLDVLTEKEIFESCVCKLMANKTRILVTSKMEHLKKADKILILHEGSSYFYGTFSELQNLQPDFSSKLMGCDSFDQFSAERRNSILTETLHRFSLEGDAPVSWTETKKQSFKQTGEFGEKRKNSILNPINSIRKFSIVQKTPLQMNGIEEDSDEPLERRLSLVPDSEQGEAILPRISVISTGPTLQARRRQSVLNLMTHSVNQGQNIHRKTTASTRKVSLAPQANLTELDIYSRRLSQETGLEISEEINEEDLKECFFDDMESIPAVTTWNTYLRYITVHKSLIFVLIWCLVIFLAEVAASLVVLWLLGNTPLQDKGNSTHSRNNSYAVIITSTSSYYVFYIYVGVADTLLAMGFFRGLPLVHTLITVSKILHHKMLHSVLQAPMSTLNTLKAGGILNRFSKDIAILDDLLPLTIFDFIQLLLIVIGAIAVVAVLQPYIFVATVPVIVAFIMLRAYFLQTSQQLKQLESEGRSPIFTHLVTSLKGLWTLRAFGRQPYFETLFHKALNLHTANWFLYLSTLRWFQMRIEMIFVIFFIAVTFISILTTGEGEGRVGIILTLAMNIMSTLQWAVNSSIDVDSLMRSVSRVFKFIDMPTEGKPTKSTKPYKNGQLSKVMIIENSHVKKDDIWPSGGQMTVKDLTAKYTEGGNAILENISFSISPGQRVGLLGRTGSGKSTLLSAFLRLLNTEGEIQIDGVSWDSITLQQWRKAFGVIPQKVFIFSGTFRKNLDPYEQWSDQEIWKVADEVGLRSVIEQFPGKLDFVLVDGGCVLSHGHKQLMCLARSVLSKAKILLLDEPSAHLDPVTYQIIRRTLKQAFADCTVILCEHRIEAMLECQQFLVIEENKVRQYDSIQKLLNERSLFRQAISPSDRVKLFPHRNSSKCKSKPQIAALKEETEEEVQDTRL

SMILES	EC50 (F508delCFTR [1]) [µM]	Maximum % activity (with co-corrector) (F508delCFTR [1])	EC50 (F508delCFTR [2]) [µM]	Emax (F508delCFTR [2]) [%]
CCC1(C(=O)NS(=O)(=O)c2ccc(Oc3ccccc3)cc2)CCc2c(Cl)cccc21 (stereo not drawn) [III-143]	≥ 10	+ (<150)	≥ 10	< 50
CCC1(C(=O)NS(=O)(=O)c2cccc(C#N)c2)CCc2c(Cl)cccc21 (stereo not drawn) [III-144]	3 to 10	++ (≥150 and <350)	≥ 10	< 50
CCC1(C(=O)NS(=O)(=O)c2cc[nH]n2)CCc2c(Cl)cccc21 (stereo not drawn) [III-145]	3 to 10	++ (≥150 and <350)	3 to 10	< 50
O=C(NS(=O)(=O)c1cccc2ccccc12)C1(Cc2ccccn2)CCc2c(Cl)cccc21 (stereo not drawn) [III-147]	3 to 10	++ (≥150 and <350)	3 to 10	< 50
COc1ccc(-c2cccc(OC(F)(F)F)c2)c2c1CCCC2C(=O)NS(=O)(=O)c1cccc2ccccc12 (stereo not drawn) [III-148]	< 3	+++ (≥350)	< 3	≥ 150
CCC1(C(=O)NS(=O)(=O)c2cccc(Cl)c2C(=O)OC)CCc2c(Cl)cccc21 (stereo not drawn) [III-149]	< 3	+ (<150)	≥ 10	< 50
O=C(NS(=O)(=O)c1cccc2ccccc12)C1CCc2c(Br)ccc(O)c21 (stereo not drawn) [III-152]	3 to 10	++ (≥150 and <350)	3 to 10	< 50
COc1ccc(N2CCOCC2)c2c1CCCC2C(=O)NS(=O)(=O)c1cccc2ccccc12 (stereo not drawn) [III-153]	≥ 10	+ (<150)	≥ 10	< 50
COc1ccc(-c2ccc(C(F)(F)F)cc2)c2c1CCCC2C(=O)NS(=O)(=O)c1cccc2ccccc12 (stereo not drawn) [III-154]	< 3	+++ (≥350)	< 3	≥ 150
CCC1(C(=O)NS(=O)(=O)c2cccc(Cl)c2C)CCc2c(Cl)cccc21 (stereo not drawn) [III-156]	< 3	++ (≥150 and <350)	3 to 10	50 to 150
COc1ccc(Br)c2c1C(C(=O)NS(=O)(=O)c1cccnc1OC)CC2 (stereo not drawn) [III-158]	3 to 10	++ (≥150 and <350)	3 to 10	50 to 150
COc1ccc(Br)c2c1C(C(=O)NS(=O)(=O)c1cccnc1N)CC2 (stereo not drawn) [III-159]	3 to 10	+++ (≥350)	3 to 10	≥ 150
COc1ccc(Br)c2c1C(C(=O)NS(=O)(=O)c1cccc(N)n1)CC2 (stereo not drawn) [III-160]	3 to 10	+++ (≥350)	3 to 10	50 to 150
CCOc1ccc(S(=O)(=O)NC(=O)C2CCc3c(Br)ccc(OC)c32)c2ccccc12 (stereo not drawn) [III-161]	3 to 10	++ (≥150 and <350)	3 to 10	< 50
COc1ccc(Br)c2c1C(C(=O)NS(=O)(=O)c1ccc(OC)c3ccccc13)CC2 (stereo not drawn) [III-162]	3 to 10	+++ (≥350)	3 to 10	50 to 150
COc1ccc(Br)c2c1C(C(=O)NS(=O)(=O)c1cccn3cnnc13)CC2 (stereo not drawn) [III-163]	3 to 10	++ (≥150 and <350)	≥ 10	< 50
COc1ccc(-c2cncnc2)c2c1C(C(=O)NS(=O)(=O)c1cccc3ccccc13)CCC2 (stereo not drawn) [III-164]	< 3	+++ (≥350)	< 3	50 to 150
COc1ccc(-c2ccc(C3CC3)nc2)c2c1C(C(=O)NS(=O)(=O)c1cccc3ccccc13)CCC2 (stereo not drawn) [III-165]	< 3	++ (≥150 and <350)	3 to 10	50 to 150
COc1ccc(-c2ccncc2)c2c1C(C(=O)NS(=O)(=O)c1cccc3ccccc13)CCC2 (stereo not drawn) [III-166]	< 3	++ (≥150 and <350)	< 3	50 to 150
COc1ccc(-c2ccc(C)nc2)c2c1C(C(=O)NS(=O)(=O)c1cccc3ccccc13)CCC2 (stereo not drawn) [III-167]	< 3	++ (≥150 and <350)	3 to 10	< 50
COc1ccc(-c2cncnc2)c2c1C(C(=O)NS(=O)(=O)c1cccc3ncccc13)CC2 (stereo not drawn) [III-168]	3 to 10	+++ (≥350)	3 to 10	50 to 150
